Assay results published in ChEMBL document CHEMBL1201862, “PubChem BioAssay data set” (2004).
Values belong to the compound of their own block, whether it stands above or below them. The source made the active and inactive calls.

Columns and labels:
[1] = biological target: T1, Cytochrome P450 1A2 (Homo sapiens, UniProt P05177);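 also: PubChem cytochrome P450 panel assay, CYP1A2 panel member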
T1 sequence (P05177 whole entry): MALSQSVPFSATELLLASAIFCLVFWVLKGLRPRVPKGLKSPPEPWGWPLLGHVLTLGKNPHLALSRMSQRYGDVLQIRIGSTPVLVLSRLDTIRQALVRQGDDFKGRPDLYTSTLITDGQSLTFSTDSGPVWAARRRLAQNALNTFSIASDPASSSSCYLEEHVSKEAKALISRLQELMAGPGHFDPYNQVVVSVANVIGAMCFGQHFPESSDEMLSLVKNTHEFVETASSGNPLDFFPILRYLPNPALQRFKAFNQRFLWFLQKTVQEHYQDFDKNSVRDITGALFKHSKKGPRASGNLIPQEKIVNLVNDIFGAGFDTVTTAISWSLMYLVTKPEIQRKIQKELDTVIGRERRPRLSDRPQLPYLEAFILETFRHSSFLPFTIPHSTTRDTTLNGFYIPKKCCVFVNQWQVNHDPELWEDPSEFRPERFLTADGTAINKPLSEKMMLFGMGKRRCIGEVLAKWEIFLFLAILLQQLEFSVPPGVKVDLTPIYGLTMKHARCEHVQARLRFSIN

[2] = biological target: Cytochrome P450 2C9 (Homo sapiens, UniProt P11712)
[3] = biological target: Cytochrome P450 3A4 (Homo sapiens, UniProt P08684);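 also: CYP3A4 tested as one member of a cytochrome P450 panel screen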
[4] = NIH-3T3 fibroblast cytotoxicity, dose response, cytotoxicity control, cell-based, fluorescence, Alamar Blue, secondary assay (AID 2327); format: functional;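 also: NIH-3T3 mouse fibroblasts cultured with fluconazole at 8 µg/mL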
[5] = fluconazole-exposed Candida albicans growth modulators – fluorescence, retest, confirmation (AID 2467); format: functional, cell-based
[6] = biological target: T2, Corticotropin-releasing factor receptor 2/Corticotropin-releasing factor-binding protein (Homo sapiens, UniProt P24387+Q13324); experiment: activators of CRF receptor 2 with binding protein – uHTS hits, confirmation (AID 602473); format: functional; conditions: read-out: EC50_Mean
T2 sequence (Q13324 whole entry): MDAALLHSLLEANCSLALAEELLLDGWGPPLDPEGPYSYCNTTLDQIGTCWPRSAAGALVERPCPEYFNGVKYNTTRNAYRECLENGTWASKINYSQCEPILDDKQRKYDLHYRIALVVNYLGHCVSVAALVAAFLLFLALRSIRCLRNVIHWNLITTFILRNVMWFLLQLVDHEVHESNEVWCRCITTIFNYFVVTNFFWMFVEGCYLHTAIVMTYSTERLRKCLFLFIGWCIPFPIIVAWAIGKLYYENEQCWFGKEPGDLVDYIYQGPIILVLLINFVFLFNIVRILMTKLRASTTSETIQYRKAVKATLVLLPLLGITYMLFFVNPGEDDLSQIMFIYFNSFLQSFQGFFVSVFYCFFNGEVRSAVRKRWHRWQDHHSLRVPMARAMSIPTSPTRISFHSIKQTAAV
T2 sequence (P24387 whole entry): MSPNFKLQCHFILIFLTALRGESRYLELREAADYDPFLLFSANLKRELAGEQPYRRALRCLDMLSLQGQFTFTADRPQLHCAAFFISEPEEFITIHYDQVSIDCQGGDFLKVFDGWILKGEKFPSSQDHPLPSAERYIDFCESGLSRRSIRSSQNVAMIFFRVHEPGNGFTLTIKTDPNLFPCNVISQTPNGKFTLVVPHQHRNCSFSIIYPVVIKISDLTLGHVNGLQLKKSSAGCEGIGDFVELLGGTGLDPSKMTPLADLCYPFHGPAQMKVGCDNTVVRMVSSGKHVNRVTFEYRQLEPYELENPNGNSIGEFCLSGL

[7] = biological target: T3, Zinc finger protein mex-5 (Caenorhabditis elegans, UniProt Q9XUB2); experiment: potency of MEX-5 RNA-binding blockers – biochemical, C. elegans, fluorescence polarization, dose response (AID 1960)
T3 sequence (Q9XUB2 whole entry): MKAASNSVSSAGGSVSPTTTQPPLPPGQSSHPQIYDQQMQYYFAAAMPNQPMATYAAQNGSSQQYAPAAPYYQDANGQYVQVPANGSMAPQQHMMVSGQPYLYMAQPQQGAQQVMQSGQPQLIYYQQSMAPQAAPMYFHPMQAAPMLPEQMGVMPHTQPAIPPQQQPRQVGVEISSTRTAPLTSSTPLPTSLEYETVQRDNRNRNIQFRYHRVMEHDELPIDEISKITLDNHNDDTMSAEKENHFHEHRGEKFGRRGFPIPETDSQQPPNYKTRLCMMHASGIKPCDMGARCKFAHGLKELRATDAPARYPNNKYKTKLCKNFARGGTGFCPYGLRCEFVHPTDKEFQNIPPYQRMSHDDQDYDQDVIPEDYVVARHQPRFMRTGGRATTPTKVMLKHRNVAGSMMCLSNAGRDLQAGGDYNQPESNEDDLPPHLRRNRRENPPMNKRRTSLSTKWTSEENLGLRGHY

[8] = biological target: T4, RNA-binding protein pos-1 (Caenorhabditis elegans, UniProt G5EF15); experiment: disruptors of C. elegans POS-1 RNA interaction – biochemical, fluorescence polarization, dose response (AID 1964);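 also: purified POS-1 fused to maltose binding protein made in E. coli; potency of compounds blocking POS-1 binding to fluorescent RNA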
T4 sequence (G5EF15 whole entry): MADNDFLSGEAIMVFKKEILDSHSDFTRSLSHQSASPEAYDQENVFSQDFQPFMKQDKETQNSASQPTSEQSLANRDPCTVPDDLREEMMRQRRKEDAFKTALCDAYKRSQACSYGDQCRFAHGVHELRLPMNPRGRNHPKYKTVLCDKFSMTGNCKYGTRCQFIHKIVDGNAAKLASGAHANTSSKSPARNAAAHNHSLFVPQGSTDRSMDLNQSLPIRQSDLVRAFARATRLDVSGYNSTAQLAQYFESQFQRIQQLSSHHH

[9] = biological target: Cytochrome P450 2C19 (Homo sapiens, UniProt P33261); experiment: Cytochrome panel assay with activity outcomes. Panel member name: p450-cyp2c19 Compounds with AC50 equal or less than 10 uM are considered active; format: functional
Sequence of Cytochrome P450 2C19 (P33261 whole entry): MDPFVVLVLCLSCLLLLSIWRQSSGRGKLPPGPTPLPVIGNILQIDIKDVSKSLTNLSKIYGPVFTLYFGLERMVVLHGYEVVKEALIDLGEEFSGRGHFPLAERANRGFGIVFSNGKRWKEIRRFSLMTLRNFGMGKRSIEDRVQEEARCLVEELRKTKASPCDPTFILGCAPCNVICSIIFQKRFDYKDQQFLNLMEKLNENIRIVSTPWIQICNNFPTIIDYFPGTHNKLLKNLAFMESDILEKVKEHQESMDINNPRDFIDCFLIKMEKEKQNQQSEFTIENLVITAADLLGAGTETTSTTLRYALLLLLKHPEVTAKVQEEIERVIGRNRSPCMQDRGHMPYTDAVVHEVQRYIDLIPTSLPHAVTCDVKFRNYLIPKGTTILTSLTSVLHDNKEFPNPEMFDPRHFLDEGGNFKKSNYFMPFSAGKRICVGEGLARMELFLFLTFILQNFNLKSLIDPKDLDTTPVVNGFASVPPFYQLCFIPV

Sequence of Cytochrome P450 2C9 (P11712 whole entry): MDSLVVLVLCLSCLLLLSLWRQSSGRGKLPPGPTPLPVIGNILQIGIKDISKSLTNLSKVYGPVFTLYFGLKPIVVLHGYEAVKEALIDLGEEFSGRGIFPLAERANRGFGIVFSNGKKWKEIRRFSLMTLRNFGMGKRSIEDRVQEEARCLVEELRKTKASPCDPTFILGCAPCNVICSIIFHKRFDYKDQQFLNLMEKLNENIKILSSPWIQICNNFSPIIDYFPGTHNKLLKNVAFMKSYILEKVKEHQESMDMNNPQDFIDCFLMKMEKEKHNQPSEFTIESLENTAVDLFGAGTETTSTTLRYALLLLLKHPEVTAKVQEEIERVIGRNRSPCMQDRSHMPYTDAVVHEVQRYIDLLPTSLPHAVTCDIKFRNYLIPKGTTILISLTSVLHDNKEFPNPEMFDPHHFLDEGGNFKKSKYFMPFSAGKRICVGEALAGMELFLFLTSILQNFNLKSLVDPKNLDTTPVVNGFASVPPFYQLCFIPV
Sequence of Cytochrome P450 3A4 (P08684 whole entry): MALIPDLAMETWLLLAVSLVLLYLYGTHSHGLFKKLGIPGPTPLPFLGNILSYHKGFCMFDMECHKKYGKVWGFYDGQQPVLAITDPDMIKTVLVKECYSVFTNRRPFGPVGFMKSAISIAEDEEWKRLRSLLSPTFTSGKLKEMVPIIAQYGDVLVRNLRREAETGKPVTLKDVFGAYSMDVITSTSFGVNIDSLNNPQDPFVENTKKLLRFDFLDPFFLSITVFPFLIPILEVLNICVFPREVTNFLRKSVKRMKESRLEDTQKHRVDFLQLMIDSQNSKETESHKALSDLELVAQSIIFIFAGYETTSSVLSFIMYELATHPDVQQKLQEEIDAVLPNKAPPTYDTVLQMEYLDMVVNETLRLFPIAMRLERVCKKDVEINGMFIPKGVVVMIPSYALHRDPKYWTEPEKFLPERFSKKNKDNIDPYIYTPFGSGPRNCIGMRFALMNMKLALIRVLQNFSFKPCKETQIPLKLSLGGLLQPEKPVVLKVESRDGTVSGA

EC50 [6]: 6.15 µM (active)
EC50 [7]: 16.2 µM (active)
EC50 [8]: 9.55 µM (inconclusive)
Structure (SMILES): COc1ccccc1NC(=O)c1sc2nc(Cc3ccccc3)cc(C(F)(F)F)c2c1N

AC50 [1]: 14.1 µM (inconclusive)
Structure (SMILES): COc1cc(-c2nnc(COC(=O)c3c4c(nc5ccccc35)CCCC4)o2)cc(OC)c1OC

AC50 ([9]; read-out: AC50): 11.2 µM (inconclusive)
Structure (SMILES): Cc1ccc2c[nH]nc2c1NC(=S)NC(=O)c1ccccc1

AC50 [1]: 12.6 µM (inconclusive)
Structure (SMILES): CC(=O)N1CCC2(CC1)CN(C(=O)Nc1cccc(C#N)c1)C2

AC50 [1]: 39.8 µM (inconclusive)
AC50 [3]: 5.01 µM (inconclusive)
Structure (SMILES): CCOc1cccc(CNCCNC(=O)c2nonc2N)c1

AC50 ([9]; read-out: AC50): 25.1 µM (inconclusive)
Structure (SMILES): CCOC(=O)C1=C(N)Oc2ccc(Br)cc2[C@@H]1[C@@H](C#N)C(=O)OCC

Second part, the compound before the results:

Structure (SMILES): Nc1nc(SCc2ccccc2)c2ncn(Cc3ccccc3)c2n1
AC50 [1]: 0.251 µM (inconclusive)
AC50 [2]: 3.16 µM (inconclusive)
AC50 [3]: 3.98 µM (inconclusive)

Structure (SMILES): CC(C)c1nc(N2CCN(C(=O)c3ccco3)CC2)c2c3c(sc2n1)CCCC3
EC50 [4]: > 150 µM (inactive)
EC50 [5]: > 38 µM (not active)

Structure (SMILES): COc1cccc(C2C(C(=O)c3ccc(C)cc3)=C(O)C(=O)N2Cc2ccco2)c1 (configuration not stated)
EC50 [4]: > 160 µM (inconclusive)
EC50 [5]: 3.1 µM (active)

Structure (SMILES): N#Cc1c(NC(=O)CCC(=O)O)ccc2ccccc12
AC50 [9]: inconclusive

Structure (SMILES): Cc1cc(C(=O)CSC(=S)SC(C)(C)C)ccc1Cl
AC50 [2]: 5.01 µM (inconclusive)
AC50 [3]: 3.16 µM (inconclusive)

Structure (SMILES): CN1CCc2nc(N)nc(-c3nc(N)nc4c3CN(C)CC4)c2C1
AC50 [9]: inconclusive

Structure (SMILES): CC(C)(C)NC(=O)NC(=O)CN1CCCc2ccccc21
EC50 [4]: > 150 µM (inactive)
EC50 [5]: > 38 µM (not active)

Structure (SMILES): CCC[C@@H]1C[C@@]1(CCC)C(NC(=O)c1cccs1)c1ccc(Cl)cc1 (some centres not stated)
AC50 [1]: 10 µM (inconclusive)
AC50 [2]: 5.01 µM (inconclusive)

Structure (SMILES): COc1ccc(CNC(=O)CN(CC2CCCO2)C(=O)CNS(=O)(=O)c2ccccc2)cc1 (configuration not stated)
AC50 [2]: 22.4 µM (inconclusive)
AC50 [3]: 3.98 µM (inconclusive)

Structure (SMILES): CC(C)OC(=O)C(C#N)c1nc2ccccc2nc1N1CCCC1 (configuration not stated)
EC50 [7]: > 300 µM (not active)
EC50 [8]: > 300 µM (not active)

Structure (SMILES): O=c1cnc2cnc(Oc3ccccc3)nc2n1C1CC1
AC50 ([9]; read-out: AC50): 39.8 µM (inconclusive)

Structure (SMILES): Cn1cnc([N+](=O)[O-])c1SCC(=O)O
AC50 [9]: inconclusive

Structure (SMILES): COc1ccc(C2C(C#N)=C(N)OC3=C2C(=O)CC(C)(C)C3)cc1OC (configuration not stated)
EC50 [7]: > 300 µM (not active)
EC50 [8]: > 300 µM (not active)
